From US20240315993A1, “ANTIPARASITIC COMPOUNDS” (Intervet Inc., priority 2021, published 2024)

Test system: Mobile stages of sea lice (pre-adults, adults of Caligus rogercresseyi)
Assay: Adult Caligus rogercresseyi sea lice contact assay
Protocol: Mobile stages of sea lice (i.e., pre-adults, adults of Caligus rogercresseyi) were exposed to seawater spiked with declining concentrations of a test compound (dissolved in a PEG sea-water mixture). Sea lice inhibition (% of dead+damaged sea lice) was assessed after approximately 1, 24 and 48 hours of continuous exposure in comparison to a negative (solvent) and untreated control group.

With `O=C(Nc1ncc(F)cc1F)c1cc(NC(=O)[C@H]2[C@H](c3cc(Cl)cc(Cl)c3)C2(Cl)Cl)ccc1Cl` [Compound 453] the EC50 (after 24 hours) was 0.072 ppb and the EC50 (after 48 hours) was 0.035 ppb.
